According to patent US11389465B2, “Phosphorylated hexaacyl disaccharides (PHADs) for treating or preventing infections” (VANDERBILT UNIVERSITY, priority 2017, dated 2022):

Legend:
[1] = test system: Pseudomonas aeruginosa; test: Pseudomonas burn wound infection in mice, MPLA given before inoculation (FIG. 1); type: in vivo; settings: MPLA 20 μg
Protocol: FIG. 1. MPLA treatment improves host resistance to Pseudomonas burn wound infection. Mice exposed to a 20% full thickness burn wound were treated with MPLA on days 3 and 4 post-burn and were inoculated with 1×10^8 Pseudomonas aeruginosa in the caudad (area 3) portion of the burn wound. A. Wounds were excised 48 hours after inoculation, sectioned into 3 segments (areas 1-3) and homogenized. Bacterial colony forming units (cfu) were determined by culture on agar plates. B. At 4-6 days after infection, wound and lungs were harvested, homogenized and cultured to measure Pseudomonas cfu. C. Survival was determined after Pseudomonas infection. *p<0.05 compared to vehicle.
Consequently, MPLA is currently employed by Glaxo Smith Kline as a component of the FDA-approved ASO4 vaccine adjuvant system (27, 28). […] It was also shown that total wound bacteria and dissemination of Pseudomonas from the burn wound to the lungs was diminished in mice treated with MPLA (FIG. 1B).

[2] = test system: tissue macrophages and neutrophils; test: MPLA modulation of tissue macrophages and neutrophils (FIG. 10); type: in vivo, mice
Description: FIG. 10. MPLA induces resistance to infection via modulation of tissue macrophages and neutrophils. A-C) Total splenic A) macrophages, B) neutrophils, and C) monocytes 3 days after S. aureus inoculation or vehicle in MPLA- and vehicle-primed mice. D) Representative image of F4/80^+ immunohistochemical staining (brown) in kidney 3 days after S. aureus inoculation in MPLA- and vehicle-primed mice E) Optical density quantification of F4/80^+ staining in kidneys. F) Mice were primed with MPLA or vehicle via intraperitoneal injection and 24 hours later pHrodo tagged S. aureus bioparticles were injected into the peritoneal cavity. Peritoneal leukocytes were harvested 6 hours later and assessed for pHrodo MFI via flow cytometry. G) Mice were primed with MPLA or vehicle via intraperitoneal injection and 24 hours later leukocytes were harvested from the peritoneal cavity. Respiratory burst was elicited by 45 minutes of PMA stimulation and DHR 123 MFI of macrophages, neutrophils, and monocytes was assessed by flow cytometry. H) Mice were administered intravenous clodronate-liposomes 24 hours prior to the first MPLA administration. Mice were then inoculated with intravenous 10^8 cfu S. aureus. Kaplan-Meier survival plot after S. aureus infection (n=15 mice/group). I) Mice were administered intravenous anti-Ly6G antibody 24 hours prior to the first MPLA administration. Mice were then inoculated with intravenous 10^8 cfu S. aureus. Kaplan-Meier survival plot after S. aureus infection (n=10 mice/group). J) C57BL6 WT and CCR2^−/− mice were primed with MPLA or vehicle and inoculated with intravenous 10^8 cfu S. aureus. Kaplan-Meier survival plot after S. aureus infection (n=10 mice/group). K) WT C57BL6 and RAG2^−/− mice were injected with intravenous MPLA or vehicle prior to intravenous inoculation with 10^8 cfu S. aureus. Kaplan-Meier survival plot (n=10 mice/group). Data shown as mean+/−SEM. For Kaplan-Meier plots *, p<0.05 via log-rank Mantel-Cox test. Otherwise, *, p<0.05 as determined by ANOVA with Tukey's post-hoc multiple comparison test
MPLA treatment increases macrophage, monocyte and neutrophil accumulation in the spleen (FIG. 10, A-C), increases macrophage accumulation in S. aureus abscesses (FIG. 10, D-E) and increases macrophage phagocytosis and respiratory burst functions (FIG. 10, F-G).

[3] = Physiological response of non-burned sheep to MPLA infusion (FIG. 6); type: in vivo; settings: 1 hour monitoring
Protocol: FIG. 6. Effects of MPLA infusion at the indicated doses over 10 minutes. Endpoints were recorded over a 1 hour period beginning at the end of the MPLA infusion.
In further studies, the response of sheep to MPLA infusion was assessed (FIG. 6). Instrumented sheep received infusions of MPLA at doses of 5, 10 or 30 ug/kg in 10 ml of endotoxin-free lactated Ringer's solution over 10 minutes. Physiological parameters were monitored for 1 hour after MPLA infusion. […] These observations indicate that sheep have sensitivity to MPLA that is very similar to humans.

[4] = test system: P. aeruginosa; test: Pseudomonas pneumonia in burned sheep treated with MPLA (FIG. 14); type: in vivo
Protocol: FIG. 14. MPLA treatment improves oxygenation and pulmonary mechanics and attenuates lactate production in sheep with Pseudomonas pneumonia. Studies were undertaken to assess oxygenation, pulmonary mechanics and hemodynamics in burned sheep treated with vehicle or MPLA prior to intrapulmonary challenge with P. aeruginosa. Sheep received a 20% total body surface area thermal burn followed 24 hours later by MPLA infusion. Intrapulmonary P. aeruginosa infection was induced at 24 hours after MPLA infusion. […] Hemodynamics and pulmonary function were measured for 24 hours after Pseudomonas infection.

[5] = test system: Staphylococcus aureus; test: Systemic S. aureus infection after MPLA or PHADs (FIG. 8); type: in vivo, mice; settings: 20 μg/mouse on day 0 and day 1; S. aureus 1×10^8 intravenously on day 2
Protocol: FIG. 8. PHADs induce bacterial clearance and promote survival post systemic S. aureus infection. […] (B) In one set of experiments, mice were euthanized at 72 hours post-infection and lung, spleen, and kidney tissues were harvested to measure bacterial burden. (C) In a separate set of experiments, mice underwent the same treatment with MPLA or PHADs, followed by infection with S. aureus. However, this group is monitored for 14 days to assess for survival. *p<0.05 compared to vehicle. N=13-16/group in the 3 day clearance experiments, performed in quadruplicate, and n=9-10/group, performed in triplicate.
In addition, mice were analyzed for survival after intravenous Staphylococcus aureus infection with treatment of MPLA or PHADs. At Day 0, mice were treated with vehicle, MPLA or PHADs (20 μg/mouse). At Day 1, mice were treated with vehicle, MPLA or PHADs (20 μg/mouse). At Day 2, mice were infected with Staphylococcus aureus (1×10^8 intravenously) and followed for survival.

[6] = infusion; not at lower doses; cited from earlier work

Monophosphoryl Lipid A [MPLA]
total wound bacteria and dissemination of Pseudomonas from the burn wound to the lungs ([1]; 20% burn, 4-6 days after infection): diminished
survival ([1]; 20% burn, Pseudomonas wound infection): One hundred
spread of bacteria within the burn wound (areas 1 and 2) ([1]; 20% cutaneous burn, wound inoculated in area 3): decreased spread of bacteria within the burn wound
macrophage, monocyte and neutrophil accumulation in the spleen ([2]; 3 days after S. aureus inoculation): increases
beneficial effects of MPLA after depletion of macrophages or neutrophils ([2]; clodronate-liposomes or anti-Ly6G, survival after S. aureus, not with cells of the adaptive immune system): ablates the beneficial effects of MPLA
macrophage phagocytosis and respiratory burst functions ([2]; intraperitoneal priming, peritoneal leukocytes): increases
macrophage accumulation in S. aureus abscesses ([2]; kidney, F4/80+ staining, 3 days after inoculation): increases
temperature, heart rate or mean pulmonary artery pressure ([3]; MPLA 5 ug/kg infused over 10 minutes): did not change
temperature, heart rate and mean pulmonary artery pressure ([3]; MPLA 10 or 30 ug/kg infused over 10 minutes): all parameters were increased
oxygenation (PaO2/FiO2 ratio, oxygenation index, shunt fraction) ([4]; 24 hours after Pseudomonas infection, compared to controls): significantly better
survival ([4]; 72 hour study period): All sheep survived
PaCO2 ([4]; MPLA vs vehicle): not significantly different between groups
decrease in plasma protein caused by pulmonary infection ([4]; MPLA vs vehicle, difference not significant): trended towards attenuation
plasma lactate concentration ([4]; compared to controls): significantly lower
survival [5]: improved survival
MPLA dose at which humans show subjective changes consistent with systemic inflammation [6]: 0.01 mg/kg
